These results are taken from ChEMBL document CHEMBL1201862, “PubChem BioAssay data set” (2004).

Activity calls are given as the source filed them. Some results are limits rather than exact numbers.

The subject of assay [1] is Streptococcus sp. 'group A'. The experiment in a line: growth inhibition of control SK(-) GAS strain, dose response, counter-screen for streptokinase expression inhibitor project, luminescence, kanamycin, BacTiterGlo, confirmation (AID 1900). Format: functional, organism-based. In general terms: Counterscreens check selectivity or assay interference.
Assay [2] is described as follows: Luminescence Cell-Based Dose Response HTS to Identify Inhibitors of 5'UTR Stem-Loop Driven Prion Protein mRNA Translation in H4 Neuroglioblastoma Cells. [Related pubchem assays: 1827 (Project Summary), 1813 (Primary HTS)]. The class given is functional.
The subject of assay [3] is Streptococcus. Briefly: Group A Streptococcus viability loss, dose response, counter-screen for streptokinase expression inhibitor project, luminescence, BacTiterGlo (AID 1915).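 Note: potency for reduction of bacterial viability or growth.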 The class given is functional, organism-based.
Assay [4] concerns the target T1, Tyrosine-protein phosphatase non-receptor type 7 (Homo sapiens, UniProt P35236).
T1 sequence (P35236 whole entry): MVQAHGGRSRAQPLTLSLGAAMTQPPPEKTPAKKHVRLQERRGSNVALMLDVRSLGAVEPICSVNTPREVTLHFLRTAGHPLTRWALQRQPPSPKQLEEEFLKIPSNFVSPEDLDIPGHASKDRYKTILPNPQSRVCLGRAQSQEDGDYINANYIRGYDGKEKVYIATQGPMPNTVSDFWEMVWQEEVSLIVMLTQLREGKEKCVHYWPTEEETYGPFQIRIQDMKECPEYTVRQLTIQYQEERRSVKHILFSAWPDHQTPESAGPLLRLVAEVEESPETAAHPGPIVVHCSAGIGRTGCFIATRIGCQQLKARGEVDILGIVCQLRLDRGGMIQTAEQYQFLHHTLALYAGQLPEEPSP
Format: functional.

Assay [5] addresses Photoreceptor-specific nuclear receptor (Homo sapiens, UniProt Q9Y5X4). The class given is functional.
Assay [6] can be described thus: inhibitors of intracellular T. cruzi replication, confirmation, NIH3T3 host cells, beta-gal luminescence (AID 2044).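 Note: intracellular parasites grown in NIH/3T3 mouse fibroblasts as host cells; luminescent beta-galactosidase reporter signal from transgenic T. cruzi replicating inside host cells; inhibitors lower the luminescence signal.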 Format: functional, cell-based.
For assay [7], the target named is Heat shock protein HSP 90-alpha (Homo sapiens, UniProt P07900). The experiment in a line: Luminescence-based dose response biochemical high throughput screening assay for inhibitors of the Heat Shock Protein 90 (HSP90). [Related pubchem assays: 1831 (Summary AID.), 1846 (Confirmation screen.), 1789 (Primary screen.)].
For assay [8], the target named is 1-phosphatidylinositol 4,5-bisphosphate phosphodiesterase beta-3 (Homo sapiens, UniProt Q01970). Briefly: Fluorescence-based biochemical high throughput dose response assay to identify inhibitors of phospholipase C isozymes (PLC-B3).
In assay [9] the target is T2, Dual specificity protein phosphatase 3 (Homo sapiens, UniProt P51452). The experiment in a line: VHR1 phosphatase inhibitors, primary screen, biochemical, absorbance, uHTS (AID 1654).
The target in assay [10] is Large T antigen (Simian virus 40, UniProt P03070). Format: functional, Betapolyomavirus macacae.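 Note: Confirmatory-stage PubChem screen for compounds that inhibit SV40 T antigen.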
Assay [11] deals with Likely tRNA 2'-phosphotransferase (Candida albicans (strain SC5314 / ATCC MYA-2876) (Yeast), UniProt Q5A7N4). The experiment in a line: TPT1 tRNA phosphotransferase inhibitors, dose response, biochemical, fluorescence polarization (AID 2160).
In assay [12] the target is T2, Dual specificity protein phosphatase 3. Briefly: SAR VHR1 Fluorescent Assay for In Vitro dose response studies. [Related pubchem assays (depositor defined):AID1654, AID1661, AID1878, AID1992, AID2004, AID2070, AID2085]. The class given is functional.
Assay [13] addresses T1, Tyrosine-protein phosphatase non-receptor type 7. Briefly: redox-dependent HePTP inhibition, mechanism study, biochemical, fluorescence (AID 2068). Format: functional.
Assay [14] has as its target 26S proteasome non-ATPase regulatory subunit 14 (Homo sapiens, UniProt O00487). Briefly: inhibition of proteasome subunit RPN11 – biochemical, fluorescence polarization, uHTS hits, confirmation (AID 602368). The class given is functional. Background: Fluorescence polarisation rises when a labelled molecule tumbles more slowly, as on binding a larger partner.
For assay [15], the target named is 72 kDa type IV collagenase (Homo sapiens, UniProt P08253). The experiment in a line: Dose Response validation of uHTS RPN11 inhibitor hits using a MMP-2 Fluorescence assay. The class given is functional.
The target in assay [16] is Small ubiquitin-related modifier 1 (Homo sapiens, UniProt P63165). Briefly: inhibitors of SUMO1 peptide binding, dose response, biochemical, fluorescence polarization, uHTS hits (AID 624382). Particulars: read-out: IC50_Mean. Format: functional.
Assay [17] addresses Serine/threonine-protein phosphatase (Homo sapiens, UniProt Q9BPW0). Briefly: PP5 phosphatase inhibitors, dose response, biochemical, fluorescence (AID 2395).
Assay [18] deals with Ras and Rab interactor 1/Tyrosine-protein kinase ABL1 (Homo sapiens, UniProt P00519+Q13671). Format: functional.
Assay [19] deals with T3, Sentrin-specific protease 8 (Homo sapiens, UniProt Q96LD8).
T3 sequence (Q96LD8 whole entry): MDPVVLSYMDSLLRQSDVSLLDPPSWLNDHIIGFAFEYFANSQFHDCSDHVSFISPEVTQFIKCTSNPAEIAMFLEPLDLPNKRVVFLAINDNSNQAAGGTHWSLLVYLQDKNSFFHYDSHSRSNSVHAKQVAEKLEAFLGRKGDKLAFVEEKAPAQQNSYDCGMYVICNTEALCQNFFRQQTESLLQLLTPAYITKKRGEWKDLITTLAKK
Format: functional.

T2 sequence (P51452 whole entry): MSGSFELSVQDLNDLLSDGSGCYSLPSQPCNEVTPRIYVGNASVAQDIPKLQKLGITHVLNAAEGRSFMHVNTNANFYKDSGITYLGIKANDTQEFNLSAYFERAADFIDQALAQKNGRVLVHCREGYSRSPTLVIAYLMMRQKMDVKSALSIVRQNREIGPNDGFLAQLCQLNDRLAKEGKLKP
Chain of Small ubiquitin-related modifier 1 (P63165 whole entry): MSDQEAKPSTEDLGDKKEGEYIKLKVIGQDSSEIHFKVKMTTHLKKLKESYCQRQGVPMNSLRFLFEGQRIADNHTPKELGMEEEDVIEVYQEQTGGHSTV
Chain of Photoreceptor-specific nuclear receptor (Q9Y5X4 whole entry): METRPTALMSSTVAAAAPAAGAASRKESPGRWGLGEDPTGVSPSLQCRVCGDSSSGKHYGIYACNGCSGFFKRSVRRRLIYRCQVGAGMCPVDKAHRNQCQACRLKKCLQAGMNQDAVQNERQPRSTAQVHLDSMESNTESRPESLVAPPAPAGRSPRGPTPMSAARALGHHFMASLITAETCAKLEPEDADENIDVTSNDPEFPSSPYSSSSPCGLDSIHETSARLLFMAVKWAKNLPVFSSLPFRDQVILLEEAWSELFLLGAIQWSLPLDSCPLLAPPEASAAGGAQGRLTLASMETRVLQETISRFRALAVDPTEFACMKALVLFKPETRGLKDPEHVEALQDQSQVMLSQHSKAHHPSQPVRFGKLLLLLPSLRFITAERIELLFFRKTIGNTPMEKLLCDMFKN
Chain of 72 kDa type IV collagenase (P08253 whole entry): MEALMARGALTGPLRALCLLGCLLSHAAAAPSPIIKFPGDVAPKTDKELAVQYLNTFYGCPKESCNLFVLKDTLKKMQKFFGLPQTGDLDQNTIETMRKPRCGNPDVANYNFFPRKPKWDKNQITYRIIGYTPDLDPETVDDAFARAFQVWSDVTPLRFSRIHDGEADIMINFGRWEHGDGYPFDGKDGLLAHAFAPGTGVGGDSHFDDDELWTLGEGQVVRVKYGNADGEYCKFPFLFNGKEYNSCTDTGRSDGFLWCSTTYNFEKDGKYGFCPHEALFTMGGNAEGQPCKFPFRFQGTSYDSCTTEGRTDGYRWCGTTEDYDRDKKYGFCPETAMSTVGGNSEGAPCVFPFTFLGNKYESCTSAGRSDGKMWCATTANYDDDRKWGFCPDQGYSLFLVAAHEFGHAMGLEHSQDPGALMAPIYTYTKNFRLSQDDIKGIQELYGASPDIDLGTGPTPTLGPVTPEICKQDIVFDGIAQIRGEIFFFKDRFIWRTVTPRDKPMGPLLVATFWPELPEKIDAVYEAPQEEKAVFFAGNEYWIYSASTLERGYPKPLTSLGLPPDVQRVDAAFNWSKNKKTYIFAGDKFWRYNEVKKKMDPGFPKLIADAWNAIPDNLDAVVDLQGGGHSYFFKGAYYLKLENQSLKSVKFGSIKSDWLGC
Chain of Large T antigen (P03070 whole entry): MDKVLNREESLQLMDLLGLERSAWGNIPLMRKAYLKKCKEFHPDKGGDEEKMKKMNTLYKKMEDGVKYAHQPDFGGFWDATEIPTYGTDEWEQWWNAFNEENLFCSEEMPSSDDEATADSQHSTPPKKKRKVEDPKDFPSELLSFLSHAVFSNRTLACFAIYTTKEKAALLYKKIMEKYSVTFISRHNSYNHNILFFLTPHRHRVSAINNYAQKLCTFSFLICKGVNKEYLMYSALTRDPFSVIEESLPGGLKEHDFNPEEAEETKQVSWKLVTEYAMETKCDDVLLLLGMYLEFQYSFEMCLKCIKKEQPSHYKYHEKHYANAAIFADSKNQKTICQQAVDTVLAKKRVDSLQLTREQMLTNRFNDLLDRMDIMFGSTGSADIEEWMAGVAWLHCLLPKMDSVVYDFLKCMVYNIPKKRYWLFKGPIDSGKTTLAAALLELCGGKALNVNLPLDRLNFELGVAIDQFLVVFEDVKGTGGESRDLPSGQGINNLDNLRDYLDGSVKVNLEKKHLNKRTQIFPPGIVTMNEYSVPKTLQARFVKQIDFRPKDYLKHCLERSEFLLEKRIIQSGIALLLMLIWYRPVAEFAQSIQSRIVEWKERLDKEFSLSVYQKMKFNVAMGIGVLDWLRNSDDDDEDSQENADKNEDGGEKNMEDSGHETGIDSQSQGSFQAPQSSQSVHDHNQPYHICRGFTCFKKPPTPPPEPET
Chain of Ras and Rab interactor 1/Tyrosine-protein kinase ABL1 (P00519 whole entry): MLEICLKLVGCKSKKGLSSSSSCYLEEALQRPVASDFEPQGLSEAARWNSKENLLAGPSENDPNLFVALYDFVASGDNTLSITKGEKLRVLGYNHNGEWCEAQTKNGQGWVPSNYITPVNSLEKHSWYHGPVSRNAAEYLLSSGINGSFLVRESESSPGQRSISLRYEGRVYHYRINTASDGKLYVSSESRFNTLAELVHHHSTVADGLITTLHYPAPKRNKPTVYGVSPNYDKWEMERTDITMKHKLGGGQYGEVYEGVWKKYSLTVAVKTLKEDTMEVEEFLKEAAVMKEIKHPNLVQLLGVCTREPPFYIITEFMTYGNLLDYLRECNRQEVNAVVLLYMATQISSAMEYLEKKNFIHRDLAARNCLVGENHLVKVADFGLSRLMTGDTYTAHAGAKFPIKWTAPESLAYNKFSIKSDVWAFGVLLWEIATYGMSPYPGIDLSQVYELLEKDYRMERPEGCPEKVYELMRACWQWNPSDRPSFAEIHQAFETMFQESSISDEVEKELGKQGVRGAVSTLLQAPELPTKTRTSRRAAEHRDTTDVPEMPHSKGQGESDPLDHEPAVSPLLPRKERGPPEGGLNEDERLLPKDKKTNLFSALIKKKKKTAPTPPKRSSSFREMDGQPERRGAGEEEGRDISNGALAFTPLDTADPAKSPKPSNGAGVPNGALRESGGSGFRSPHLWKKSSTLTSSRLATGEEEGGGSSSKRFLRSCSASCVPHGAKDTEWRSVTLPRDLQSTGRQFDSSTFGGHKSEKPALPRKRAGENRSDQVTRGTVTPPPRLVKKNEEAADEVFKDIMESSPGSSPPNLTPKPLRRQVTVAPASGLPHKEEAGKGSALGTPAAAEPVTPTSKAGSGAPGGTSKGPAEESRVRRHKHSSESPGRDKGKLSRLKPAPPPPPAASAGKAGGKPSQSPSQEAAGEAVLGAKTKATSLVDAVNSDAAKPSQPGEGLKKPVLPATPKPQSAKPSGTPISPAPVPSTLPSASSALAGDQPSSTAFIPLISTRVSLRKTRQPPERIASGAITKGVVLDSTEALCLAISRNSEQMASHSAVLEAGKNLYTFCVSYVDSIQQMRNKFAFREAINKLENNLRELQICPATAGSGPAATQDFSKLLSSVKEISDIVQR
Chain of Ras and Rab interactor 1/Tyrosine-protein kinase ABL1 (Q13671 whole entry): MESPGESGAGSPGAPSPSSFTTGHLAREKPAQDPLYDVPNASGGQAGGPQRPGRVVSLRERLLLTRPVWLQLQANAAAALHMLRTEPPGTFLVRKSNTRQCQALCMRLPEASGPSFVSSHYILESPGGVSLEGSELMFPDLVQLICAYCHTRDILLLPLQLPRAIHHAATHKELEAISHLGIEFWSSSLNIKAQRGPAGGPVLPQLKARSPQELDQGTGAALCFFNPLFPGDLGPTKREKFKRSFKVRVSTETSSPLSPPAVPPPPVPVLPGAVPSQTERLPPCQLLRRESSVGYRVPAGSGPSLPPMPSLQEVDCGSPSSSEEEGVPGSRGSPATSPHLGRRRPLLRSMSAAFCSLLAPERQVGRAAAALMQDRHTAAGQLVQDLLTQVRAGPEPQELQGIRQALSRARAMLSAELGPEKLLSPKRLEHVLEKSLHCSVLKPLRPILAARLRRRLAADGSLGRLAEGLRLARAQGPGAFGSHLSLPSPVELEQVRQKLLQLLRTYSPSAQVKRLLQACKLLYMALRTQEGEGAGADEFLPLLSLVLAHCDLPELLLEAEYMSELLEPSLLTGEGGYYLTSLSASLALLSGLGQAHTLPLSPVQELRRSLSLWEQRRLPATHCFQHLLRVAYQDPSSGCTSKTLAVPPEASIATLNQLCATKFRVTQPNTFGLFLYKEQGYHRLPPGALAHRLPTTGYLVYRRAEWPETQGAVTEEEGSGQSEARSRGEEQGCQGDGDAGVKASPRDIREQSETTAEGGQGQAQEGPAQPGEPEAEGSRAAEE
Chain of Likely tRNA 2'-phosphotransferase (Q5A7N4 whole entry): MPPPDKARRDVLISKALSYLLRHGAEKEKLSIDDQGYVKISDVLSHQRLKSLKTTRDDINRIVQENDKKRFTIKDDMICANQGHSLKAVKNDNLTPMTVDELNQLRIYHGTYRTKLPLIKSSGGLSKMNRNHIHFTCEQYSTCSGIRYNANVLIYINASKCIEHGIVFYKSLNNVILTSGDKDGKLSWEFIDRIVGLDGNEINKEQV
Chain of Serine/threonine-protein phosphatase (Q9BPW0 whole entry): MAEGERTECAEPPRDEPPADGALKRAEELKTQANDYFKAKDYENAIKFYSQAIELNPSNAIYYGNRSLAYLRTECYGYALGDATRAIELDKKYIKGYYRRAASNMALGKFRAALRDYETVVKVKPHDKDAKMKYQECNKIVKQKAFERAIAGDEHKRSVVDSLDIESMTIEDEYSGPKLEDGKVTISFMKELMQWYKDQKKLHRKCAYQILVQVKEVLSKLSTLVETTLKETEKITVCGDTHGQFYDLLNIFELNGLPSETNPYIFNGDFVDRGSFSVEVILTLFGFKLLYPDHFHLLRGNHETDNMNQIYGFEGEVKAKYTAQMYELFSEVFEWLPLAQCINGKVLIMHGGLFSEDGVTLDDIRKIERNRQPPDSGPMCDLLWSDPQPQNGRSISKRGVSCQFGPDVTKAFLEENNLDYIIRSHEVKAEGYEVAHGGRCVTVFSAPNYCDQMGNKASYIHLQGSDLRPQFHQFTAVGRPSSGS
Chain of 26S proteasome non-ATPase regulatory subunit 14 (O00487 whole entry): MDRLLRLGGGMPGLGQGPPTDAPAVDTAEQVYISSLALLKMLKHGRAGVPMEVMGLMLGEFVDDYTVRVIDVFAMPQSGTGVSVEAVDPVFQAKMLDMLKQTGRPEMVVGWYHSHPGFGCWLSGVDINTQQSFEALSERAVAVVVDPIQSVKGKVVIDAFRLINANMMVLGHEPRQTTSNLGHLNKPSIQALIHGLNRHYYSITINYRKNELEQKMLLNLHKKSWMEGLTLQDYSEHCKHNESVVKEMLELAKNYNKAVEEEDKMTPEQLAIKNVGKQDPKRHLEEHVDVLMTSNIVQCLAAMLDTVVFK

Consider `O=C1c2ccccc2C(=O)c2[nH]c(O)nc21`, for which the EC50 in assay [1] was 4.23 µM (active); in [2], 8.19 µM (active); in assay [3], > 150 µM (not active).

Consider `N#Cc1c(N2CCCC2)nc(N)c2c(N)nc(N3CCCC3)cc12`, for which, in [4], the IC50 is 74.3 µM (active).

On to `COC(=O)c1cc(C)nc2c1C(=O)C(=O)C=C2N1CCOCC1`, for which the IC50 is > 39.8 µM (not active) in [5], 3.21 µM (active) in [7] and > 123 µM (inactive) in assay [8]. In addition, the EC50 in assay [6] was 2.34 µM (active).

As for `NS(=O)(=O)c1cc(C(=O)NC2CCSc3ccccc32)ccc1Cl` (centres undefined), the IC50 in [9] is < 1.23 µM (inactive); in assay [10] it was 62.1 µM (active); in assay [11] it was 4.4 µM (active); in assay [12], 0.065 µM (active); in assay [13], 0.066 µM (active); in [14] it was 0.763 µM (active). Besides, the IC50 in [15] was 2.68 µM (active); in assay [16] it was 4.11 µM (active).

As for `CCOC(=O)C1=C(C)OC2(O)c3ccccc3C(=O)C12O` (centres undefined), the IC50 in [17] was > 67 µM (not active); in assay [18], 11.1 µM (inactive); in [19] it was 0.284 µM (active).

What is called EC50 is the concentration that produces a half-maximal response.
